Assay results from US9611263B2, “Compounds that modulate intracellular calcium” (CALCIMEDICA, INC., priority 2013, dated 2017).
pIC50: −log10 of the molar value. Like-named read-outs stand apart in the source and are kept apart here.

Key:
[1] = target: T1, Orai1/STIM1 (Homo sapiens, UniProt Q96D31); assay: Fluorescence-based assay of store-operated calcium entry in Orai1/STIM1 stable cells; type: cell-based; parameters: key to Orai1/STIM1 (IC50, μmol): A < 0.6 μmol; 0.6 μmol ≦ B ≦ 1.2 μmol; C > 1.2 μmol; — = no fit; details: for pIC50: read-out: Orai1/STIM1 (IC50, μmol)
T1 construct: expressed in transfected cells
T1 sequence (Q96D31 whole entry): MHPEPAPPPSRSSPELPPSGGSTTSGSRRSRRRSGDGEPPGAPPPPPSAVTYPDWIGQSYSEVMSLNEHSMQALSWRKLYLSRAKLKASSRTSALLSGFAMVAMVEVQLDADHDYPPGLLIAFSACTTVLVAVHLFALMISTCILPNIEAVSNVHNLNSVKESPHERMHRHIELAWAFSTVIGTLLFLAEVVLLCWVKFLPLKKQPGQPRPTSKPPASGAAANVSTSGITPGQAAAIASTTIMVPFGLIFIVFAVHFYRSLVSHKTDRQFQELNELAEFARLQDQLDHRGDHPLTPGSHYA
Description: A. Fluorescence-Based Assay of Store-Operated Calcium Entry in Orai1/STIM1 Stable Cells.
Cells stably expressing recombinant human STIM1 and Orai1 are generated by transfecting a human Orai1 expression plasmid (pcDNA3.1-Orai1-cmyc) into HEK-293 cells stably overexpressing human STIM1 (Roos et al. 2005 JCB 169(3): 435-445). Colonies of cells stably expressing both STIM1 and Orai1 proteins are selected and then subcloned by limiting dilution. Cells were cultured at 37° C./6% CO2 in complete medium with 10% FBS and appropriate selection markers.
The day prior to performing the assay Orai1/STIM1 stable cells are plated in 50 μL of complete medium at 90-95% confluence in a 384 well plate. Cells are grown at 37° C./6% CO2 overnight. On the day of the assay, 1.5 μM fluo-4-AM (Invitrogen) in complete medium is added to the cells, which are then incubated for 1 hour at RT. Cells are washed once in Ca^2+-free HBSS (Hank's buffered saline solution) and 35 μl of Ca^2+-free HBSS is added to each well. Test compounds are added to wells in a 10 μL Ca^2+-free HBSS solution, prepared at 4.5× the desired final concentration, and incubated for 30 minutes at RT. The initial baseline fluorescence signal is then measured with a FLIPR^384 (Molecular Devices) plate reader. Calcium entry is initiated by adding 5 μl of 10× CaCl2 (10 mM) in HBSS, and changes in cellular fluorescence are measured with the FLIPR^384 plate reader. In each well, the magnitude of the fluorescence signal as a result of calcium entry into the cell is determined by calculating the difference between the peak fluorescence signal measured after calcium addition and the initial baseline fluorescence signal (designated Peak-Basal). IC50 values are typically calculated as the concentration that inhibited 50% of the Peak-Basal signal.

[2] = tested on: RBL-2H3 cells; assay: Fluorescence-based assay of store-operated calcium entry in RBL-2H3 cells; type: cell-based, rat; details: for pIC50: thapsigargin, 50% inhibition of Upslope, read-out: RBL-2H3 (IC50, μmol); for RBL-2H3 efficacy: given in place of a class
Description: B. Fluorescence-Based Assay of Store-Operated Calcium Entry in RBL-2H3 Cells.
RBL-2H3 cells are obtained from ATCC and maintained in complete medium with 10% FBS at 37° C./6% CO2.
The day prior to performing the assay, RBL-2H3 cells are plated in 50 μL of complete medium in a 384 well plate. Cells are grown at 37° C./6% CO2 overnight and grow to 50-60% confluence by the next day. On the assay day, 1.5 μM Fluo-4-AM dye (Invitrogen) in complete medium is added and incubated for 1 hour at RT. Cells are washed twice in Ca^2+-free HBSS buffer and 35 μL Ca^2+-free HBSS buffer is added to each well. 10 μL of a test compound prepared in a Ca^2+-free HBSS solution at 4.5× of the desired concentration is added to a well and incubated for 5 minutes at RT. 10 μL of thapsigargin prepared in a Ca^2+-free HBSS solution at 5.5× of the desired concentration (5.5 uM) is added to each well and incubated for an additional 25 minutes. The initial baseline fluorescence signal is measured with a FLIPR^384 (Molecular Devices) plate reader. 5 μL of 12× calcium in HBSS (12 mM) is added and changes in cellular fluorescence are measured with the FLIPR^384 plate reader. In each well, the change in the fluorescent signal as a function of time due to calcium entry into the cell is determined by calculating the difference between the fluorescent signal measured 7 seconds after calcium addition and the initial baseline fluorescence signal at time zero (t=0). This parameter is designated Upslope. The IC50 value is calculated as the concentration at which 50% of the Upslope is inhibited.

[3] = HEK-293 cells stably expressing human STIM1 and Orai1, 50% inhibition of Peak-Basal fluorescence signal

| Compound | pIC50 [1, 3] | pIC50 ([2]; Rattus norvegicus, RBL-2H3) | further results |
| --- | --- | --- | --- |
| CCc1nn(-c2nccs2)cc1-c1ccc(NC(=O)c2c(F)cc(F)cc2F)nc1 [Example 37, N-(5-(3-ethyl-1-(thiazol-2-yl)-1H-pyrazol-4-yl)pyridin-2-yl)-2,4,6-trifluorobenzamide] | > 6.22 | > 6.22 |  |
| Cc1cccc(F)c1C(=O)Nc1ccc(-c2cn(-c3nccs3)nc2C)c(F)c1 [Example 12, 2-fluoro-N-(3-fluoro-4-(3-methyl-1-(thiazol-2-yl)-1H-pyrazol-4-yl)phenyl)-6-methylbenzamide] | 5.92 to 6.22 | > 6.22 |  |
| Cc1cnc(-n2cc(-c3ccc(NC(=O)c4c(F)cc(F)cc4F)nc3)c(C)n2)s1 [Example 65, 2,4,6-trifluoro-N-(5-(3-methyl-1-(5-methylthiazol-2-yl)-1H-pyrazol-4-yl)pyridin-2-yl)benzamide] | > 6.22 |  | RBL-2H3 efficacy [2]: <50% |
| Cc1cnc(-n2cc(-c3ccc(NC(=O)c4c(F)cccc4F)nc3)c(C)n2)s1 [Example 63, 2,6-difluoro-N-(5-(3-methyl-1-(5-methylthiazol-2-yl)-1H-pyrazol-4-yl)pyridin-2-yl)benzamide] |  |  | Orai1/STIM1 efficacy ([1]; given in place of a class): <50%; RBL-2H3 efficacy [2]: <50% |
| Cc1nn(-c2nccs2)cc1-c1cnc(NC(=O)c2c(F)cccc2F)cn1 [Example 24, 2,6-difluoro-N-(5-(3-methyl-1-(thiazol-2-yl)-1H-pyrazol-4-yl)pyrazin-2-yl)benzamide] | > 6.22 | > 6.22 |  |
| Cc1nn(-c2nccs2)cc1-c1ccc(NC(=O)c2c(F)cc(F)cc2F)nc1 [Example 21, 2,4,6-trifluoro-N-(5-(3-methyl-1-(thiazol-2-yl)-1H-pyrazol-4-yl)pyridin-2-yl)benzamide] | > 6.22 | > 6.22 |  |
| O=C(Nc1ccc(-c2cn(-c3nccs3)nc2C(F)(F)F)cn1)c1c(F)cccc1F [Example 52, 2,6-difluoro-N-(5-(1-(thiazol-2-yl)-3-(trifluoromethyl)-1H-pyrazol-4-yl)pyridin-2-yl)benzamide] | > 6.22 | > 6.22 |  |
| Cc1cccc(F)c1C(=O)Nc1ccc(-c2cn(-c3nccs3)nc2C)cn1 [Example 19, 2-fluoro-6-methyl-N-(5-(3-methyl-1-(thiazol-2-yl)-1H-pyrazol-4-yl)pyridin-2-yl)benzamide] | > 6.22 | > 6.22 |  |
| Cc1nn(-c2nccs2)cc1-c1ccc(NC(=O)c2ccccc2F)s1 [Example 70, 2-fluoro-N-(5-(3-methyl-1-(thiazol-2-yl)-1H-pyrazol-4-yl)thiophen-2-yl)benzamide] | > 6.22 | > 6.22 |  |
| CC(C)(C)c1nn(-c2nccs2)cc1-c1ccc(NC(=O)c2c(F)cccc2F)nc1 [Example 54, N-(5-(3-tert-butyl-1-(thiazol-2-yl)-1H-pyrazol-4-yl)pyridin-2-yl)-2,6-difluorobenzamide] |  | > 6.22 | Orai1/STIM1 (IC50, μmol) [1, 3]: — |
| Cc1nn(-c2nccs2)cc1-c1cnc(NC(=O)c2c(F)ccc(F)c2F)cn1 [Example 27, 2,3,6-trifluoro-N-(5-(3-methyl-1-(thiazol-2-yl)-1H-pyrazol-4-yl)pyrazin-2-yl)benzamide] | > 6.22 | > 6.22 |  |
| Cc1nn(-c2nccs2)cc1-c1ccc(NC(=O)c2ccccc2F)cc1 [Example 2, 2-fluoro-N-(4-(3-methyl-1-(thiazol-2-yl)-1H-pyrazol-4-yl)phenyl)benzamide] | > 6.22 | > 6.22 |  |
| N-(5-(3-ethyl-1-(thiazol-2-yl)-1H-pyrazol-4-yl)pyrazin-2-yl)-2,4,6-trifluorobenzamide [Example 40] | > 6.22 |  | pIC50 [2]: > 6.22 |
| Cc1nn(-c2nccs2)cc1-c1cnc(NC(=O)c2ccc(F)c(F)c2F)cn1 [Example 29, 2,3,4-trifluoro-N-(5-(3-methyl-1-(thiazol-2-yl)-1H-pyrazol-4-yl)pyrazin-2-yl)benzamide] | < 5.92 |  |  |
| Cc1nn(-c2nccs2)cc1-c1ccc(NC(=O)c2ccc(F)c(F)c2F)nc1 [Example 22, 2,3,4-trifluoro-N-(5-(3-methyl-1-(thiazol-2-yl)-1H-pyrazol-4-yl)pyridin-2-yl)benzamide] | 5.92 to 6.22 |  |  |
